Values of other authors, collected in patent publication EP4106725B1, “WATER-SOLUBLE SOLID DISPERSION OF QUERCETIN, FORMS THEREOF, A METHOD OF OBTAINING THEREOF, USE OF ALKALINE AGENT, AND A KIT” ("Scientific Industrial Centre "Borshchahivskiy Chemical …, priority 2020, dated 2021).

Assays:
[1] = crystalline dehydrated state and dihydrate

acidity constant value pKa1 (hydroxylic group in 4'-position)	acidity constant value pKa2 (hydroxylic group in 7-position)	solubility in water [1]	Compound	pKa (acidity constant of the alkaline agent)
6.62 ± 0.04	9.7 ± 0.3	~ 1 mg/100 mL	O=c1c(O)c(-c2ccc(O)c(O)c2)oc2cc(O)cc(O)c12 [quercetin, 2-(3,4-dihydroxyphenyl)-3,5,7-trihydroxy-4H-chromen-4-one]	–
–	–	–	O=C([O-])[O-].[Na+].[Na+] [Na2CO3, sodium carbonate]	10.33
